This is an account of results in article PMC7849180 (Frontiers in Pharmacology, 2020).

This assay has as its system JAK2 signaling pathway. Put plainly: JAK2 signaling in NSG mice injected with HCD-57-JAK2V617F cells. The following applies: single 200 mg/kg intraperitoneally, 4 h. Format: in vivo. The method, then: Suzhou Zelgen Biopharmaceuticals Co., Ltd. Jaktinib Hydrochloride Tablets Chemical Drug Class 1 New Drug […]
cells at a concentration of 1 μM. […]
effectively affect the primary cells harboring the JAK2V617F mutation in patients with […]
In Vivo Pharmacodynamic Study of ZG0128 in Mouse Model of Myeloproliferative Neoplasm
Primary myelofibrosis (PMF) is characterized by the formation of bone marrow fibrous tissues (scar-like) caused by the abnormal proliferation of three types of cells (platelets, white blood cells, and red blood cells). At present, there is still no particularly effective treatment for these diseases. JAKV617F transgenic mice and JAK2V617F bone marrow transplanted mice can develop the pathological characteristics of myeloproliferative neoplasm, which can be used to effectively evaluate the efficacy of drugs used in the treatment of myeloproliferative neoplasms.
HCD-57-JAK2V617F cells were intravenously injected into NSG mice. Three weeks later, the mice were injected intraperitoneally with a single dose of 200 mg/kg of compound ZG0128, and euthanized 4 h after drug administration. The results of […]
nucleated cells in spleen were HCD-57-JAK2V617F transplanted cells. Western blot […]
the phosphorylation of downstream major signaling proteins of JAK2, i.e., ERK1/2, […]
inhibit the JAK2 signaling pathway in vivo. […]

Turning to `Cl.Cl.O.[2H]C1([2H])COCC([2H])([2H])N1c1ccc(Nc2nccc(-c3ccc(C(=O)NCC#N)cc3)n2)cc1` [ZG0128, Jaktinib Dihydrochloride Monohydrate], the “phosphorylation of ERK1/2, Akt and STAT5 in splenocytes” value is “significantly inhibited”.
